Data from article PMC6257796, “Effects of Eupatilin and Jaceosidin on Cytochrome P450 Enzyme Activities in Human Liver Microsomes” (Molecules, 2010).

How the values were obtained:
Assay type in all cases: in vitro ADME
CYP2C8 [1] = target: T1, CYP2C8 (Homo sapiens, UniProt P10632); assay: Kinetic analysis (Ki, inhibition type) in human liver microsomes: amodiaquine N-deethylation; details: pooled human liver microsomes; Lineweaver, Dixon and secondary reciprocal plots
T1 construct: pooled human liver microsomes (0.25 mg/mL); tissue BD Gentest Co. H161; host or cells: pooled human liver microsomes
T1 sequence (P10632 1-490): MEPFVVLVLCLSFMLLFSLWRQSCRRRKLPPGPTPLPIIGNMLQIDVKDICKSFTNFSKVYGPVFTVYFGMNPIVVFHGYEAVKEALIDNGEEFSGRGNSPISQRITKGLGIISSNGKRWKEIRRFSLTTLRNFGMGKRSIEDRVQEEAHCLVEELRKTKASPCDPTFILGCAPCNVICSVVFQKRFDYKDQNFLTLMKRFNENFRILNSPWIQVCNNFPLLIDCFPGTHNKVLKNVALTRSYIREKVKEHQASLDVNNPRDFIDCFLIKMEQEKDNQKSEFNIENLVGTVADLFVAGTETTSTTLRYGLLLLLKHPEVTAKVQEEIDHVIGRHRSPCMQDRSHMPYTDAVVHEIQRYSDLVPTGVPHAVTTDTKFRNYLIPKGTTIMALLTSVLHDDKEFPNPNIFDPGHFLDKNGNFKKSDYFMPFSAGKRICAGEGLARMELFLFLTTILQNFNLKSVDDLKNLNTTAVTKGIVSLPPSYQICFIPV
Procedure: (§1) The Ki values and inhibition types (competitive, noncompetitive, uncompetitive, or mixed) were determined for eupatilin and jaceosidin using Lineweaver plots, Dixon plots, and secondary reciprocal plots.
(§2) The reactions were initiated by addition of NADPH at 37 °C and stopped after 15 min by placing the incubation tubes on ice and adding 100 μL of ice-cold methanol containing an internal standard. The incubation mixtures were centrifuged at 10,000' g for 5 min, and aliquots (5 μL) of the supernatants were analyzed by liquid chromatography/tandem mass spectrometry (LC/MS/MS).
(§3) All seven metabolites produced from the cocktail of CYP isoform-specific substrates were simultaneously determined by LC/MS/MS. The system consisted of a tandem quadrupole mass spectrometer (TSQ Quantum Access, ThermoFisher Scientific, CA, USA) coupled with a Nanospace SI-2 LC system. The separation was performed on an Atlantis dC18 column (5 μm, 2.1 mm i.d. × 100 mm, Waters, Waltham, MA, USA) using the gradient elution of a mixture of 5% methanol in 0.1% formic acid (mobile phase A) and 95% methanol in 0.1% formic acid (mobile phase B) at a flow rate of 0.25 mL/min: 10% mobile phase B for 1 min, 10% to 95% mobile phase B for 1 min, 95% mobile phase B for 5 min. The column and autosampler temperatures were 50 °C and 4 °C, respectively. After 1.5 min, the LC eluant was diverted from waste to the mass spectrometer that was fitted with an electrospray ionization (ESI) source and operated in the positive ion mode. The ESI source settings for the ionization of the metabolites were as follows: electrospray voltage, 5.0 kV; vaporizer temperature, 420 °C; capillary temperature 360 °C; sheath gas pressure, 35 psi; auxiliary gas pressure, 10 psi. Quantification was performed by selected reaction monitoring (SRM) of the [M+H]^+ ion and the related product ion for each metabolite. The analytical data were processed using Xcalibur® software (ThermoFisher Scientific).
(§4) The IC50 values (concentration of inhibitor causing 50% inhibition of the original enzyme activity) were calculated using WinNonlin software, a non-linear regression analysis program (Pharsight, Mountain View, CA, USA). The apparent kinetic parameters for inhibitory potential (Ki values) were estimated from the fitted curves using Enzyme Kinetics Ver. 1.3 program (Systat Software Inc., San Jose, CA, USA).

CYP2C9 [2] = target: T2, CYP2C9 (Homo sapiens, UniProt P11712); assay: Kinetic analysis (Ki, inhibition type) in human liver microsomes: diclofenac 4-hydroxylation; details: pooled human liver microsomes; for Inhibition type, diclofenac 4-hydroxylation (CYP2C9): Lineweaver, Dixon and secondary reciprocal plots
T2 construct: pooled human liver microsomes (0.25 mg/mL); tissue BD Gentest Co. H161; host or cells: pooled human liver microsomes
T2 sequence (P11712 whole entry): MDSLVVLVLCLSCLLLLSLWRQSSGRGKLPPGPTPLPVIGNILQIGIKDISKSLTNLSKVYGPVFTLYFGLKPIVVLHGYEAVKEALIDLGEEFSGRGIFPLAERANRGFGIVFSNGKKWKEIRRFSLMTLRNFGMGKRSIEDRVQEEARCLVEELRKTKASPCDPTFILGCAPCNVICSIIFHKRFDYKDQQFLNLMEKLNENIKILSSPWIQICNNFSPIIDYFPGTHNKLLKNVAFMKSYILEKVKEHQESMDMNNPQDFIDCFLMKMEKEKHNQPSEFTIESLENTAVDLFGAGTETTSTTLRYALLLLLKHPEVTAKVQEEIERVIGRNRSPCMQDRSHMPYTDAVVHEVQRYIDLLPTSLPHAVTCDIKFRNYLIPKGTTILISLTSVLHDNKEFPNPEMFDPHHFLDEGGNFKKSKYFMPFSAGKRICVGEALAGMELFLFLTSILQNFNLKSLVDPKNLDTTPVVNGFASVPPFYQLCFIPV
Procedure: as §1, §2, §3, §4

CYP1A2 = target: T3, CYP1A2 (Homo sapiens, UniProt P05177); assay: Cocktail probe assay in pooled human liver microsomes: phenacetin O-deethylation (IC50); details: 50 μM phenacetin
T3 construct: pooled human liver microsomes (0.25 mg/mL); tissue BD Gentest Co. H161; host or cells: pooled human liver microsomes
T3 sequence (P05177 1-516): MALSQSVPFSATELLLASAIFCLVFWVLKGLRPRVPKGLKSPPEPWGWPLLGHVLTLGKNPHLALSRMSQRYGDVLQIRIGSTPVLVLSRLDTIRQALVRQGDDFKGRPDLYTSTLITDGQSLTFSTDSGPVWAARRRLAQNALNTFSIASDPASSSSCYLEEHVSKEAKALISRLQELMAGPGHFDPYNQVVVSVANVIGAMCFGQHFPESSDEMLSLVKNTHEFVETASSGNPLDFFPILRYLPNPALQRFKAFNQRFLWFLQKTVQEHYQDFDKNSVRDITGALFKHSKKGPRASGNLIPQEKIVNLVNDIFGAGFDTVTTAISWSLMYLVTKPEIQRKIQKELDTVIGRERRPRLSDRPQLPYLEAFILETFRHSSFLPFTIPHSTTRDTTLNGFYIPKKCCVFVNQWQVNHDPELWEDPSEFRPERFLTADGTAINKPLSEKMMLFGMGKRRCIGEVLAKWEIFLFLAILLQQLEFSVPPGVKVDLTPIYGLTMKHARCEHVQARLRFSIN
Procedure: (§5) The inhibitory potencies (IC50 values) of eupatilin and jaceosidin were determined with CYP assays in the presence and absence of eupatilin and jaceosidin (final concentrations of 0.1−100 μM with acetonitrile concentration of less than 0.5% v/v) using pooled human liver microsomes. Phenacetin O-deethylase, coumarin 7-hydroxylase, amodiaquine N-deethylase, diclofenac hydroxylase, [S]-mephenytoin 4'-hydroxylase, bufuralol 1'-hydroxylase, and midazolam 1'-hydroxylase activities were determined as probe activities for CYP1A2, CYP2A6, CYP2C8, CYP2C9, CYP2C19, CYP2D6, and CYP3A, respectively, using cocktail incubation and tandem mass spectrometry. The incubation mixtures were prepared in a total volume of 200 μL as follows: pooled human liver microsomes (0.25 mg/mL), 1.3 mM NADPH, 3.3 mM MgCl2, 50 mM potassium phosphate buffer (pH 7.4), and a cocktail of probe substrates and various concentrations of eupatilin or jaceosidin (0.1−100 μM). […] After a 3 min preincubation at 37 °C, the reactions were initiated by adding NADPH and incubated for 20 min at 37 °C with shaking in a water bath. After incubation, the reaction was stopped by placing the tubes on ice and adding 100 μL of ice-cold acetonitrile containing internal standards (0.5 μg/mL [^13C,^15N]-acetaminophen for acetaminophen and N-desethylamodiaquine, 0.5 μg/mL [^2H5]-7-hydroxycoumarin for 7-hydroxycoumarin, 2.0 μg/mL [^13C6]-4-hydoxydiclofenac for 4-hydoxydiclofenac, 0.5 μg/mL [^2H3]-4'-hydoxymephenytoin for 4-hydoxymephenytoin and 1'-hydroxymidazolam, and 0.5 μg/mL [^2H7]-1'-hydroxybufuralol for 1'-hydroxybufuralol). The incubation mixtures were then centrifuged at 10,000× g for 5 min. All incubations were performedin triplicate.
(§6) To evaluate the effect of preincubation on inhibitory potency, eupatilin and jaceosidin (0.1−100 μM) were preincubated for 30 min with NADPH, buffer, and microsomes before the addition of the CYP probe substrates. The reaction was started by addition of the cocktail of probe substrates.
(§7) All seven metabolites produced from the cocktail of CYP isoform-specific substrates were simultaneously determined by LC/MS/MS. The system consisted of a tandem quadrupole mass spectrometer (TSQ Quantum Access, ThermoFisher Scientific, CA, USA) coupled with a Nanospace SI-2 LC system. The separation was performed on an Atlantis dC18 column (5 μm, 2.1 mm i.d. × 100 mm, Waters, Waltham, MA, USA) using the gradient elution of a mixture of 5% methanol in 0.1% formic acid (mobile phase A) and 95% methanol in 0.1% formic acid (mobile phase B) at a flow rate of 0.25 mL/min: 10% mobile phase B for 1 min, 10% to 95% mobile phase B for 1 min, 95% mobile phase B for 5 min. […] Quantification was performed by selected reaction monitoring (SRM) of the [M+H]^+ ion and the related product ion for each metabolite. […]

CYP2C9 [3] = target: T2, CYP2C9; assay: Cocktail probe assay in pooled human liver microsomes: diclofenac 4-hydroxylation (IC50); details: 10 μM diclofenac
Procedure: as §5, §6, §7

CYP2C19 = target: T4, CYP2C19 (Homo sapiens, UniProt P33261); assay: Kinetic analysis (Ki, inhibition type) in human liver microsomes: [S]-mephenytoin 4'-hydroxylation; details: pooled human liver microsomes; for Inhibition type, S-mephenytoin 4'-hydroxylation (CYP2C19): Lineweaver, Dixon and secondary reciprocal plots
T4 construct: pooled human liver microsomes (0.25 mg/mL); tissue BD Gentest Co. H161; host or cells: pooled human liver microsomes
T4 sequence (P33261 whole entry): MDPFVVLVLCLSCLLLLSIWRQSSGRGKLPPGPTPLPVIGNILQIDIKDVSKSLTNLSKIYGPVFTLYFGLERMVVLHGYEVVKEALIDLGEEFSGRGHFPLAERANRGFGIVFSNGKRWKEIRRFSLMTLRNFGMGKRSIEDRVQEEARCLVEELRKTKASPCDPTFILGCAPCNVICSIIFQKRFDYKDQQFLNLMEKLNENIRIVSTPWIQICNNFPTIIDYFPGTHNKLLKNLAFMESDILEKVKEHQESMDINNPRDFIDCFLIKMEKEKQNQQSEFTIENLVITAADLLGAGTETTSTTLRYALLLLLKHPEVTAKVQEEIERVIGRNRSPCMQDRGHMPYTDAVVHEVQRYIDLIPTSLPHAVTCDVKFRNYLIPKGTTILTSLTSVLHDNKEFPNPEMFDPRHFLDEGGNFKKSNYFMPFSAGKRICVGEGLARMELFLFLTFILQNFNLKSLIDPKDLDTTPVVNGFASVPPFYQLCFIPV
Procedure: as §1, §2, §3, §4

CYP2D6 = target: T5, CYP2D6 (Homo sapiens, UniProt P10635); assay: Kinetic analysis (Ki, inhibition type) in human liver microsomes: bufuralol 1'-hydroxylation; details: pooled human liver microsomes
T5 construct: pooled human liver microsomes (0.25 mg/mL); tissue BD Gentest Co. H161; host or cells: pooled human liver microsomes
T5 sequence (P10635 whole entry): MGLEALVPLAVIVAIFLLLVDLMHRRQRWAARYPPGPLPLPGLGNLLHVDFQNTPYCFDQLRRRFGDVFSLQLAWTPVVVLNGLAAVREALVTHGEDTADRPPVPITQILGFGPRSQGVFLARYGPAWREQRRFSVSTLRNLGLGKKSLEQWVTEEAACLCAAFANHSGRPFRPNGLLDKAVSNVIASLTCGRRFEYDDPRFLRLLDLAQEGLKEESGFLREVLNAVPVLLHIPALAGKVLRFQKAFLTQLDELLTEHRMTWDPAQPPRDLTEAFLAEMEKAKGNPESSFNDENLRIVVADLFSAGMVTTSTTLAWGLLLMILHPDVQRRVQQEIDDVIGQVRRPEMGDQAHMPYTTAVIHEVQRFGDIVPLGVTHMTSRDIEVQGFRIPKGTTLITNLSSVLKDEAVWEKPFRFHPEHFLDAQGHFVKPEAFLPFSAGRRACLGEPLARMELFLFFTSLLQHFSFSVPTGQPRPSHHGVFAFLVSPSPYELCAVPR
Procedure: as §1, §2, §3, §4

CYP2C8 [4] = target: T1, CYP2C8; assay: Cocktail probe assay in pooled human liver microsomes: amodiaquine N-deethylation (IC50); details: 2.0 μM amodiaquine, no preincubation
Procedure: as §5, with “After incubation, the reaction was stopped by placing the tubes on ice and adding 100 μL of ice-cold acetonitrile containing internal standards (0.5 μg/mL [^13C,^15N]-acetaminophen for acetaminophen and N-desethylamodiaquine, 0.5 μg/mL [^2H5]-7-hydroxycoumarin for 7-hydroxycoumarin, 2.0 μg/mL [^13C6]-4-hydoxydiclofenac for 4-hydoxydiclofenac, 0.5 μg/mL [^2H3]-4'-hydoxymephenytoin for 4-hydoxymephenytoin and 1'-hydroxymidazolam, and 0.5 μg/mL [^2H7]-1'-hydroxybufuralol for 1'-hydroxybufuralol). The incubation mixtures were then centrifuged at 10,000× g for 5 min. All incubations were performedin triplicate.” left out
All seven metabolites produced from the cocktail of CYP isoform-specific substrates were simultaneously determined by LC/MS/MS. […] Quantification was performed by selected reaction monitoring (SRM) of the [M+H]^+ ion and the related product ion for each metabolite. […]

[5] = with 30 min preincubation in presence of NADPH

- Inhibition type, amodiaquine N-deethylation (CYP2C8) (CYP2C8 [1]): competitive
- Ki (CYP2C9 [2]; 1-50 μM diclofenac): 6.4 ± 0.25 µM
- Inhibition type, diclofenac 4-hydroxylation (CYP2C9) (CYP2C9 [2]): competitive
- Inhibition type, diclofenac 4-hydroxylation (CYP2C9) (CYP2C9 [2]; listed as Jaceosidin): competitive
- IC50 (CYP1A2; no preincubation): 5.3 ± 0.81 µM
- IC50 (CYP1A2; [5]): 6 ± 0.45 µM
- IC50 (CYP2C9 [3]; no preincubation): 10.2 ± 1 µM
- IC50 (CYP2C9 [3]; [5]): 8.6 ± 0.91 µM
- Ki (CYP2C19; 10-100 μM [S]-mephenytoin): 45.1 ± 4.2 µM
- Inhibition type, S-mephenytoin 4'-hydroxylation (CYP2C19) (CYP2C19): mixed
- Inhibition type, S-mephenytoin 4'-hydroxylation (CYP2C19) (CYP2C19; listed as Jaceosidin): mixed type
- Ki (CYP2D6; 0.5-5 μM bufuralol): 57.8 ± 3.6 µM
- Inhibition type, bufuralol 1'-hydroxylation (CYP2D6) (CYP2D6; Lineweaver, Dixon and secondary reciprocal plots): competitive
- IC50 (CYP2C8 [4]): > 100 µM
Compound: COc1cc(-c2cc(=O)c3c(O)c(OC)c(O)cc3o2)ccc1O [jaceosidin, 5,7-dihydroxy-2-(4-hydroxy-3-methoxyphenyl)-6-methoxychromen-4-one]
